Tested on: snails
Assay: Insect control performance verification: cabbage leaves fed to snails
Assay type: in vivo
Settings: leaves sprayed with 10 mg/mL suspension; 10 snails per group
Excerpt: Cabbage leaves each at a size of 5 cm×5 cm were divided into four groups with four cabbage leaves in each group. […] The four groups of leaves were respectively administered to four groups of snails with 10 snails in each group. The consumption rate by the snails for the untreated cabbage leaf group was almost 100%. The consumption rate by the snails for the cabbage leaves simply sprayed with the imidacloprid suspension was about 30%. […] The consumption rate by the snails for the cabbage leaves that were first sprayed with the suspension of the protein product of the present disclosure and then treated with the Vc aqueous solution or the fruit and vegetable detergent was increased to 80%.

Structure (SMILES): O=[N+]([O-])NC1=NCCN1Cc1ccc(Cl)nc1 [imidacloprid]
- consumption rate of cabbage leaves by the snails: about 30%
